{"source": "patent US9695155B2", "about": "“Herbicidal substituted pyrimidinyloxy benzene compounds” (E. I. DU PONT DE NEMOURS AND COMPANY, priority 2013, dated 2017)", "key": {"canarygrass [1]": {"system": "canarygrass", "assay": "Test D preemergence", "assay_type": "in vivo, Phalaris minor", "source_text": "(§1) Seeds of plant species selected from bluegrass (annual bluegrass, Poa annua), blackgrass (Alopecurus myosuroides), canarygrass (littleseed canarygrass, Phalaris minor), chickweed (common chickweed, Stellaria media), galium (catchweed bedstraw, Galium aparine), bromegrass, downy (downy bromegrass, Bromus tectorum), field poppy (Papaver rhoeas), field violet (Viola arvensis), green foxtail (Setaria viridis), deadnettle (henbit deadnettle, Lamium amplexicaule), Italian ryegrass (Lolium multiflorum), kochia (Kochia scoparia), lambsquarters (Chenopodium album), oilseed rape (Brassica napus), pigweed (Amaranthus retroflexus), chamomile (scentless chamomile, Matricaria inodora), Russian thistle (Salsola kali), speedwell (bird's-eye speedwell, Veronica persica), spring barley (Hordeum vulgare), spring wheat (Triticum aestivum), wild buckwheat (Polygonum convolvulus), wild mustard (Sinapis arvensis), wild oat (Avena fatua), wild radish (Raphanus raphanistrum), windgrass (Apera spica-venti), winter barley (Hordeum vulgare), and winter wheat (Triticum aestivum) were planted into a silt loam soil and treated preemergence with test chemicals formulated in a non-phytotoxic solvent mixture which included a surfactant.\n(§2) At the same time, these species were planted in pots containing Redi-Earth® planting medium (Scotts Company, 14111 Scottslawn Road, Marysville, Ohio 43041) comprising spaghnum peat moss, vermiculite, wetting agent and starter nutrients and treated with postemergence applications of the test chemicals formulated in the same manner. Plants ranged in height from 2 to 18 cm (1- to 4-leaf stage). Treated plants and controls were maintained in a controlled growth environment for 7 to 21 days after which time all species were compared to controls and visually evaluated. Plant response ratings, summarized in Table D, are based on a scale of 0 to 100 where 0 is no effect and 100 is complete control. A dash (-) response means no test result."}, "kochia": {"system": "kochia", "assay": "Test D preemergence", "assay_type": "in vivo, Kochia scoparia", "source_text": "as §1, §2"}, "wild radish": {"system": "wild radish", "assay": "Test D preemergence", "assay_type": "in vivo, Raphanus raphanistrum", "source_text": "as §1, §2"}, "canarygrass [2]": {"system": "canarygrass", "assay": "Test D postemergence", "assay_type": "in vivo, Phalaris minor", "source_text": "as §1, §2"}, "chickweed": {"system": "chickweed", "assay": "Test D postemergence", "assay_type": "in vivo, Stellaria media", "source_text": "as §1, §2"}, "green foxtail": {"system": "green foxtail", "assay": "Test D postemergence", "assay_type": "in vivo, Setaria viridis", "source_text": "as §1, §2"}, "lambsquarters": {"system": "lambsquarters", "assay": "Test D postemergence", "assay_type": "in vivo, Chenopodium album", "source_text": "as §1, §2"}, "oilseed rape": {"system": "oilseed rape", "assay": "Test D postemergence", "assay_type": "in vivo, Brassica napus", "source_text": "as §1, §2"}, "pigweed": {"system": "pigweed", "assay": "Test D postemergence", "assay_type": "in vivo, Amaranthus retroflexus", "source_text": "as §1, §2"}, "wild buckwheat": {"system": "wild buckwheat", "assay": "Test D postemergence", "assay_type": "in vivo, Polygonum convolvulus", "source_text": "as §1, §2"}, "[3]": {"conditions": "16 g ai/ha, scale 0 (no effect) to 100 (complete control)"}, "[4]": {"conditions": "31 g ai/ha, scale 0 to 100 (0 no effect, 100 complete control)"}, "[5]": {"conditions": "62 g ai/ha, scale 0 to 100 (0 no effect, 100 complete control)"}, "[6]": {"conditions": "125 g ai/ha, scale 0 to 100 (0 no effect, 100 complete control)"}, "[7]": {"conditions": "250 g ai/ha, scale 0 to 100 (0 no effect, 100 complete control)"}}, "data": [{"molecule": "Clc1cnc(Oc2ccccc2-n2cc(Cl)cn2)nc1", "note": "[Compound 3]", "values": [{"measurement": "Plant response rating, Canarygrass", "setting": "canarygrass [1]; [3]", "result": 0}, {"measurement": "Plant response rating, Canarygrass", "setting": "canarygrass [1]; 31 g ai/ha, scale 0-100", "result": 0}, {"measurement": "Plant response rating, Canarygrass", "setting": "canarygrass [1]; 62 g ai/ha, scale 0-100", "result": 0}, {"measurement": "Plant response rating, Canarygrass", "setting": "canarygrass [1]; 125 g ai/ha, scale 0-100", "result": 0}, {"measurement": "Plant response rating, Canarygrass", "setting": "canarygrass [1]; 250 g ai/ha, scale 0-100", "result": 25}, {"measurement": "Plant response rating, Kochia", "setting": "kochia; [3]", "result": 0}, {"measurement": "Plant response rating, Kochia", "setting": "kochia; 31 g ai/ha, scale 0-100", "result": 30}, {"measurement": "Plant response rating, Kochia", "setting": "kochia; 62 g ai/ha, scale 0-100", "result": 30}, {"measurement": "Plant response rating, Kochia", "setting": "kochia; 125 g ai/ha, scale 0-100", "result": 30}, {"measurement": "Plant response rating, Kochia", "setting": "kochia; 250 g ai/ha, scale 0-100", "result": 50}, {"measurement": "Plant response rating, Radish, Wild", "setting": "wild radish; [3]", "result": 0}, {"measurement": "Plant response rating, Radish, Wild", "setting": "wild radish; 31 g ai/ha, scale 0 (no effect) to 100 (complete control)", "result": 20}, {"measurement": "Plant response rating, Radish, Wild", "setting": "wild radish; 62 g ai/ha, scale 0-100", "result": 60}, {"measurement": "Plant response rating, Radish, Wild", "setting": "wild radish; 125 g ai/ha, scale 0-100", "result": 90}, {"measurement": "Plant response rating, Radish, Wild", "setting": "wild radish; 250 g ai/ha, scale 0-100", "result": 95}, {"measurement": "Plant response rating, Canarygrass", "setting": "canarygrass [2]; 16 g ai/ha, scale 0-100", "result": 30}, {"measurement": "Plant response rating, Canarygrass", "setting": "canarygrass [2]; [4]", "result": 0}, {"measurement": "Plant response rating, Canarygrass", "setting": "canarygrass [2]; [5]", "result": 0}, {"measurement": "Plant response rating, Canarygrass", "setting": "canarygrass [2]; [6]", "result": 0}, {"measurement": "Plant response rating, Canarygrass", "setting": "canarygrass [2]; [7]", "result": 10}, {"measurement": "Plant response rating, Chickweed", "setting": "chickweed; 16 g ai/ha, scale 0-100", "result": 40}, {"measurement": "Plant response rating, Chickweed", "setting": "chickweed; [4]", "result": 0}, {"measurement": "Plant response rating, Chickweed", "setting": "chickweed; [5]", "result": 25}, {"measurement": "Plant response rating, Chickweed", "setting": "chickweed; [6]", "result": 30}, {"measurement": "Plant response rating, Chickweed", "setting": "chickweed; [7]", "result": 40}, {"measurement": "Plant response rating, Foxtail, Green", "setting": "green foxtail; 16 g ai/ha, scale 0-100", "result": 10}, {"measurement": "Plant response rating, Foxtail, Green", "setting": "green foxtail; [4]", "result": 0}, {"measurement": "Plant response rating, Foxtail, Green", "setting": "green foxtail; [5]", "result": 0}, {"measurement": "Plant response rating, Foxtail, Green", "setting": "green foxtail; [6]", "result": 0}, {"measurement": "Plant response rating, Foxtail, Green", "setting": "green foxtail; [7]", "result": 10}, {"measurement": "Plant response rating, Lambsquarters", "setting": "lambsquarters; 16 g ai/ha, scale 0-100", "result": 25}, {"measurement": "Plant response rating, Lambsquarters", "setting": "lambsquarters; [4]", "result": 20}, {"measurement": "Plant response rating, Lambsquarters", "setting": "lambsquarters; [5]", "result": 60}, {"measurement": "Plant response rating, Lambsquarters", "setting": "lambsquarters; [6]", "result": 80}, {"measurement": "Plant response rating, Lambsquarters", "setting": "lambsquarters; [7]", "result": 85}, {"measurement": "Plant response rating, Oilseed Rape", "setting": "oilseed rape; 16 g ai/ha, scale 0-100", "result": 90}, {"measurement": "Plant response rating, Oilseed Rape", "setting": "oilseed rape; [4]", "result": 80}, {"measurement": "Plant response rating, Oilseed Rape", "setting": "oilseed rape; [5]", "result": 80}, {"measurement": "Plant response rating, Oilseed Rape", "setting": "oilseed rape; [6]", "result": 90}, {"measurement": "Plant response rating, Oilseed Rape", "setting": "oilseed rape; [7]", "result": 95}, {"measurement": "Plant response rating, Pigweed", "setting": "pigweed; 16 g ai/ha, scale 0-100", "result": 70}, {"measurement": "Plant response rating, Pigweed", "setting": "pigweed; [4]", "result": 70}, {"measurement": "Plant response rating, Pigweed", "setting": "pigweed; [5]", "result": 70}, {"measurement": "Plant response rating, Pigweed", "setting": "pigweed; [6]", "result": 70}, {"measurement": "Plant response rating, Pigweed", "setting": "pigweed; [7]", "result": 90}, {"measurement": "Plant response rating, Buckwheat, Wild", "setting": "wild buckwheat; Postemergence, 62 g ai/ha, scale 0 to 100 (0 no effect, 100 complete control)", "result": 50}, {"measurement": "Plant response rating, Buckwheat, Wild", "setting": "wild buckwheat; Postemergence, 31 g ai/ha, scale 0 to 100 (0 no effect, 100 complete control)", "result": 10}, {"measurement": "Plant response rating, Buckwheat, Wild", "setting": "wild buckwheat; Postemergence, 125 g ai/ha, scale 0 to 100 (0 no effect, 100 complete control)", "result": 60}, {"measurement": "Plant response rating, Buckwheat, Wild", "setting": "wild buckwheat; Postemergence, 250 g ai/ha, scale 0 to 100 (0 no effect, 100 complete control)", "result": 80}, {"measurement": "Plant response rating, Buckwheat, Wild", "setting": "wild buckwheat; postemergence, 16 g ai/ha, scale 0 to 100, 0 no effect, 100 complete control", "result": 50}]}]}
